Test results reported in US4524206A, “1-Heteroaryl-4-(2,5-pyrrolidinedion-1-yl)alkyl)piperazine derivatives” (Mead Johnson & Company, priority 1983, dated 1985).

test: pharmacological profile from the in vivo screening tests and in vitro receptor binding (tranquilizing profile); conditions: potential indicated by test profile
Text: The following in vivo screening tests were utilized as the basis to determine the tranquilizing profile and potential side-effect liabilities of the instant compounds.
As further indication of the psychotropic activity and specificity of the instant compounds, state of the art in vitro central nervous system receptor binding methodology can be employed. […] Inhibition of radiolabeled ligand binding to such specific high affinity sites is considered a measure of a compound's ability to affect corresponding central nervous system functions or cause side effects in vivo. This principle is employed in the following in vitro assay which is given by way of example.
Another test predictive of side effects measures protection against norepinephrine lethality. This procedure essentially relates to alpha-block and the unwanted side effects which accompany it, such as sedation and blood pressure lowering.

Row | Molecule | pharmacological profile
1 | O=C1CC2(CCc3ccccc3C2)C(=O)N1CCCCN1CCN(c2ncccn2)CC1 (stereo not drawn) [Example 16, 1'-[4-[4-(2-Pyrimidinyl)-1-piperazinyl]butyl]spiro[1,2,3,4-tetrahydronaphthalene-2,3'-pyrrolidine-2',5'-dione]] | selective anxiolytic potential
2 | 3-(4-Fluorophenyl)-3-methyl-1-[4-[4-(2-pyrimidinyl)-1-piperazinyl]butyl]-2,5-pyrrolidinedione [Example 7] | potential non-dopaminergic antipsychotic activity
3 | O=C1CC(c2ccccc2)(c2ccccc2)C(=O)N1CCCCN1CCN(c2ncccn2)CC1 [Example 9, 3,3-Diphenyl-1-[4-[4-(2-pyrimidinyl)-1-piperazinyl]butyl]-2,5-pyrrolidinedione] | selective anxiolytic potential
